# Test results published in patent US10253319B2, “miRNA modulators of thermogenesis” (AptamiR Therapeutics, Inc., priority 2012, dated 2019).
# Tested on: UCP3
# Assay: UCP3 mRNA expression change in pre-adipocytes, RNA-Seq (Table 14)
# Assay type: cell-based, human
# Conditions: 12 days, 100 nM rosiglitazone or 25 nM miRNA analog
# Description: In order to assess the effect of miRNA analogs on human pre-adipocytes differentiation into mature adipocytes, human subcutaneous pre-adipocytes (SuperLot 0048 from 8 female donors, ZenBio, NC) were plated on Day 0 into 96-well plates and allowed to attach overnight in preadipocyte medium (DMEM/Ham's F-12 (1:1, v/v), HEPES buffer, Fetal bovine serum and Antibiotics). The next day (Day 1), the medium was removed and replaced with differentiation medium (DMEM/Ham's F-12 (1:1, v/v), 100 μM Ascorbic Acid, 0.85 μM insulin, 20 nM sodium selenite, 0.2 nM, triiodothryonine, 1 μM dexamethasone, 100 μM isobutyl-methylxanthine, 100 nM Rosiglitazone and Antibiotics. The cells were allowed to incubate for 2 days at 37°, 5% CO2. After 2 days (Day 3), the medium was removed and replaced with fresh maintenance medium (DMEM/Ham's F-12 (1:1, v/v), 100 μM Ascorbic Acid, 0.85 μM insulin, 20 nM sodium selenite, 0.2 nM triiodothryonine, and Antibiotics). On Day 3, the cells were transfected with miRNA analogs (Dharmacon specific miRIDIAN Mimics and Hairpin Inhibitors) using the transfecting agent Dharmafect1. All treatments were in triplicate. […]
# Changes in mRNA expression of UCP1, 2 and 3 were also measured in the presence of rosiglitazone or miRNA analogs, as shown below in Table 14.
compound,measurement,value
CN(CCOc1ccc(CC2SC(=O)NC2=O)cc1)c1ccccn1 (stereo not shown) [rosiglitazone],mRNA Expression changes (log ratios) UCP3,0.26 log ratios
